Publication PMC11922054 (Science Advances, 2025)
Ends that are not written are not given here.

Columns and labels:
S. cohnii L5 [1] = experiment: MIC, broth microdilution; type: cell-based, Staphylococcus cohnii; settings: for MICs of derivatives: strain not named in the sentence (table S6: S. cohnii L5 and E. coli)
[2] = tested on: sheep red blood cells (RBCs); experiment: Hemolytic activity; type: cell-based; settings: 0 to 512 μM, 37°C, 1 hour
HEp-2 cells = experiment: Cytotoxicity, WST-1 assay; type: cell-based, human; settings: up to 512 μM, 24 hours
A549 cells = experiment: Cytotoxicity, WST-1 assay; type: cell-based; settings: up to 512 μM, 24 hours
Vero cells = experiment: Cytotoxicity, WST-1 assay; type: cell-based, African green monkey; settings: up to 512 μM, 24 hours
H9c2 cells = experiment: Cytotoxicity, WST-1 assay; type: cell-based, rat; settings: up to 512 μM, 24 hours
BALB/c mice = experiment: In vivo toxicity experiments; set-up: species or system mouse; settings: after 5 days; intraperitoneal, highest dose 150 mg/kg; n = 5
pH stability = type: physicochemical; settings: pH 2 to 12 for 1 and 2 hours, 37°C; read-out activity on S. cohnii L5
S. cohnii L5 [3] = experiment: Mouse skin wound infection model; type: in vivo; settings: 10 days; NCBP1 8 mg/kg

Row | Sequence | MICs of derivatives (S. cohnii L5 [1]) | MIC (S. cohnii L5 [1]; S. cohnii L5, broth microdilution, 18 h, 37°C) | hemolytic activity [2] | toxicity toward cells (HEp-2 cells) | toxicity toward cells (A549 cells) | toxicity toward cells (Vero cells) | toxicity toward cells (H9c2 cells) | survival rate of mice (BALB/c mice) | pH stability (pH stability) | growth of the mice, body weight (S. cohnii L5 [3])
1 | APWLRVALCPG [NCBP1a] | > 512 µM | – | – | – | – | – | – | – | – | –
2 | KPWLRVALCPG [NCBP1] | – | 16 µM | no noticeable hemolytic activity | negligible toxicity | negligible toxicity | negligible toxicity | negligible toxicity | 100% | resistant to a wide range of pH values | did not affect the normal growth
3 | KPWLAVALCPG [NCBP1b] | > 512 µM | – | – | – | – | – | – | – | – | –
